Measurements from ChEMBL document CHEMBL1140620, “Development of integrase inhibitors for treatment of AIDS: an overview” (Eur J Med Chem, 2007).
pEC50, pIC50: −log10 of the molar value.

Target: T1, Human immunodeficiency virus type 1 integrase (Human immunodeficiency virus 1, UniProt Q7ZJM1)
Test: Inhibition of HIV1 integrase

T1 sequence (Q7ZJM1 whole entry): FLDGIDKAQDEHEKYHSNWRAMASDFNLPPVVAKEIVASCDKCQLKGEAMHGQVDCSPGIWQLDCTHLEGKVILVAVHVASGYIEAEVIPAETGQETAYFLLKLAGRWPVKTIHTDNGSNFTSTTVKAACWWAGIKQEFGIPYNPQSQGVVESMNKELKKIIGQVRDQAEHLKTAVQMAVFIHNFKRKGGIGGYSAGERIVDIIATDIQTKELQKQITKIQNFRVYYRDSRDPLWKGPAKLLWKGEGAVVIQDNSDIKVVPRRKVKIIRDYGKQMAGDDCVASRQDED

| SMILES | pIC50 |
| --- | --- |
| O=C(O)c1cc2cc(O)c(O)cc2[nH]1 | > 5.00 |
| O=C1C(O)=C(O)C(O)=C2CC(O)=CC=CC12 (stereo not given) | 5.68 |

Tested on: Human immunodeficiency virus 1
Test: Antiviral activity against human immunodeficiency virus 1 in cell culture
Assay type: functional, organism-based

| SMILES | pEC50 | IC95 |
| --- | --- | --- |
| COc1cc2c(cc1Cc1cccc(Cl)c1F)c(=O)c(C(=O)O)cn2[C@H](CO)C(C)C | 9.05 |  |
| O=C(CC(=O)c1ccc(Cc2ccc(F)cc2)o1)c1nc[nH]n1 |  | 12000 nM |
| O=C(NCc1ccc(F)cc1)c1nc(N2CCCCS2(=O)=O)c2cccnc2c1O |  | 100 nM |
| O=C(/C=C/c1cccn1Cc1ccccc1)CC(=O)C(=O)O | 5.82 |  |
| O=C(O)C(=O)CC(=O)c1cccn1Cc1ccc(F)cc1 |  | 100 nM |

Target: T1, Human immunodeficiency virus type 1 integrase
Test: Inhibition of HIV1 integrase-mediated 3'-end processing activity

| SMILES | pIC50 |
| --- | --- |
| O=C(O)C(=O)CC(=O)c1cc(OCc2ccccc2)cc(OCc2ccccc2)c1 | 6.70 |

Target: T1, Human immunodeficiency virus type 1 integrase
Test: Inhibition of HIV1 integrase strand transfer activity

| SMILES | pIC50 |
| --- | --- |
| O=C(O)C(=O)CC(=O)c1cc(OCc2ccccc2)cc(OCc2ccccc2)c1 | 5.46 |
| COc1cccc(CN(Cc2cccc(OC)c2)c2ccc3nc(N)[nH]c3c2)c1 | 5.74 |
| N=C(N)c1ccc2cc(C#Cc3cccc(OCc4ccccc4)c3)ccc2c1 | 5.68 |
| N#C/C(=C(/O)C(=O)O)c1cn(-c2ccc(F)cc2)c2ccccc12 | 5.00 |
| CC(C)S(=O)(=O)Nc1ccc2nc(N)[nH]c2c1 | 5.59 |
| O=C(c1cc(Cc2ccccc2)cc(CN2CCCS2(=O)=O)c1)c1ncc2cccnc2c1O | 5.00 |
| CC(C)(C)C1CCC(C2=NCCc3ccc([C@H]4CC4c4ccc5cc(C(=N)N)ccc5c4)cc32)CC1 (stereo not given in full) | 5.47 |
